# Measured values as given in patent US10377753B2, “Substituted 4-azaindoles and their use as GluN2B receptor modulators” (Janssen Pharmaceutica NV, priority 2015, dated 2019).
# Target: cloned human NR1/NR2B ion channels (Homo sapiens (Human), UniProt Q05586+Q13224)
# Assay: HNR2BC: effects of test articles on cloned human NR1/NR2B ion channels expressed in mammalian cells (FLIPR calcium flux)
# Type: cell-based
# Settings: cloned human NR1/NR2B ion channels, Table 5
# In short: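 In a stable Tet-On-induced cell line expressing human GluN1/GluN2B, Calcium 5-loaded cells were preincubated 5 min with compound, then stimulated 5 min with glutamate at ~EC80 plus 10 μM glycine, in pH 7.4 HEPES buffer. FLIPR calcium fluorescence was normalized to control wells.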
# cloned human NR1/NR2B ion channels, sequence (Q13224 27-1484, other chains not shown): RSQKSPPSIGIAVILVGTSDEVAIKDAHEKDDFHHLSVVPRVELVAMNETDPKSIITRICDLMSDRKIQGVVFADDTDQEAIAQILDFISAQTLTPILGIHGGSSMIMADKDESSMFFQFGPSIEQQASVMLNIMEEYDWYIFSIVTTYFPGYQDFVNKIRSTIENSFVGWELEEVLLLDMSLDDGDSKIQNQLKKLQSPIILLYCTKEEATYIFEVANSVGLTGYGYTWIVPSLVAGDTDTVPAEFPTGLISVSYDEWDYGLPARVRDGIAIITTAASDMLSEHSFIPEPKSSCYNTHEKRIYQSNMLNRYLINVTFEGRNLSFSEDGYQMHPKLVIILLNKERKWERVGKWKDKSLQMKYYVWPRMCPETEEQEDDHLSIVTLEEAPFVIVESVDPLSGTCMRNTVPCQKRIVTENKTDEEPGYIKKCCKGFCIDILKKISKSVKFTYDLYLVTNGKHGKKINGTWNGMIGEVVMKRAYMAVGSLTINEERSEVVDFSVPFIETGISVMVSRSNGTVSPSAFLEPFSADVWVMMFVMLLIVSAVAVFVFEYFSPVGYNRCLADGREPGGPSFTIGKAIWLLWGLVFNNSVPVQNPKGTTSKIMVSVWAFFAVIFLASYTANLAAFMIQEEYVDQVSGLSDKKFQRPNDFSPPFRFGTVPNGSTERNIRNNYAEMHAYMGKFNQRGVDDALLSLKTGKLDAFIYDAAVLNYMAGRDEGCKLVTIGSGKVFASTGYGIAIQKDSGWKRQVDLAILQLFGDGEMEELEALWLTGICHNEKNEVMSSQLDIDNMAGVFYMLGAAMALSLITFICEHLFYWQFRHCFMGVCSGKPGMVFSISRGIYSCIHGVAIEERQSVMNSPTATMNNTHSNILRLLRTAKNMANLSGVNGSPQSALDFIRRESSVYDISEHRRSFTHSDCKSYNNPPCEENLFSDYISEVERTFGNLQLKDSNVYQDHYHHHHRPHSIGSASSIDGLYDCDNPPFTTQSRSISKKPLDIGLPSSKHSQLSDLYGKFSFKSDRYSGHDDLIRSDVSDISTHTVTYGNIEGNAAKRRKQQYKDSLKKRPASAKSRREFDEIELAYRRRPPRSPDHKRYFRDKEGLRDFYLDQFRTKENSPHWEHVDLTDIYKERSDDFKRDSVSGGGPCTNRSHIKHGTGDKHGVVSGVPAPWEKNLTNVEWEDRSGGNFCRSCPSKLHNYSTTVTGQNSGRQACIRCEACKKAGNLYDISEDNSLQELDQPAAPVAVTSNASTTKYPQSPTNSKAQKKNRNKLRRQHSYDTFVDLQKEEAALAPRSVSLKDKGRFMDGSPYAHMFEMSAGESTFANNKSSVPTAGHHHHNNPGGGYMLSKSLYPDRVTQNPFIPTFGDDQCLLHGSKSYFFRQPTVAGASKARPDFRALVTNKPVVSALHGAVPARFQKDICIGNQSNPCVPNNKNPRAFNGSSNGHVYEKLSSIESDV
row,Structure (SMILES),IC50
1,"O=C(Cn1ccc2ncc(-c3cccc(C(F)F)c3)cc21)N1CCC1 [Example 446, 1-(Azetidin-1-yl)-2-[6-[3-(difluoromethyl)phenyl]pyrrolo[3,2-b]pyridin-1-yl]ethanone]",0.1 µM
2,"Cc1c(F)ccc(-c2cnc3ccn(CC(=O)N4CCC4)c3c2)c1F [Example 452, 1-(Azetidin-1-yl)-2-[6-(2,4-difluoro-3-methyl-phenyl)pyrrolo[3,2-b]pyridin-1-yl]ethanone]",0.0251 µM
3,"Cc1cccc(-c2cnc3ccn(CC(=O)N4CC(F)C4)c3c2)c1F [Example 454, 1-(3-Fluoroazetidin-1-yl)-2-[6-(2-fluoro-3-methyl-phenyl)pyrrolo[3,2-b]pyridin-1-yl]ethanone]",0.0251 µM
4,"O=C(Cn1ccc2ncc(-c3ccc(F)c(F)c3F)cc21)N1CC(F)C1 [Example 455, 1-(3-Fluoroazetidin-1-yl)-2-[6-(2,3,4-trifluorophenyl)pyrrolo[3,2-b]pyridin-1-yl]ethanone]",0.0316 µM
5,"O=C(Cn1ccc2ncc(-c3ccccc3F)cc21)N1CC(F)C1 [Example 457, 1-(3-Fluoroazetidin-1-yl)-2-[6-(2-fluorophenyl)pyrrolo[3,2-b]pyridin-1-yl]ethanone]",0.0158 µM
6,"O=C(Cn1ccc2ncc(-c3cccc(C(F)F)c3)cc21)N1CC(F)C1 [Example 458, 2-[6-[3-(Difluoromethyl)phenyl]pyrrolo[3,2-b]pyridin-1-yl]-1-(3-fluoroazetidin-1-yl)ethanone]",0.398 µM
7,"Cc1c(F)ccc(-c2cnc3ccn(CC(=O)N4CC(F)C4)c3c2)c1F [Example 460, 2-[6-(2,4-Difluoro-3-methyl-phenyl)pyrrolo[3,2-b]pyridin-1-yl]-1-(3-fluoroazetidin-1-yl)ethanone]",0.0631 µM
8,"O=C(Cn1ccc2ncc(-c3cccc(Cl)c3)cc21)N1CCC1 [Example 463, 1-(Azetidin-1-yl)-2-[6-(3-chlorophenyl)pyrrolo[3,2-b]pyridin-1-yl]ethanone]",0.1 µM
9,"O=C(Cn1ccc2ncc(-c3cccc(Cl)c3)cc21)N1CC(F)C1 [Example 465, 2-[6-(3-Chlorophenyl)pyrrolo[3,2-b]pyridin-1-yl]-1-(3-fluoroazetidin-1-yl)ethanone]",0.0794 µM
10,"O=C(Cn1ccc2ncc(-c3ccc(F)c(Cl)c3)cc21)N1CC(F)C1 [Example 467, 2-[6-(3-Chloro-4-fluoro-phenyl)pyrrolo[3,2-b]pyridin-1-yl]-1-(3-fluoroazetidin-1-yl)ethanone]",0.0631 µM
11,"O=C(Cn1cc(F)c2ncc(-c3ccccc3F)cc21)N1CCC1 [Example 471, 1-(Azetidin-1-yl)-2-[3-fluoro-6-(2-fluorophenyl)pyrrolo[3,2-b]pyridin-1-yl]ethanone]",0.1 µM
12,"Cc1cccc(-c2cnc3c(F)cn(CC(=O)N4CCC4)c3c2)c1F [Example 472, 1-(Azetidin-1-yl)-2-[3-fluoro-6-(2-fluoro-3-methyl-phenyl)pyrrolo[3,2-b]pyridin-1-yl]ethanone]",0.2 µM
13,"Cc1cccc(-c2cnc3c(F)cn(CC(=O)N4CCC4)c3c2)c1 [Example 473, 1-(Azetidin-1-yl)-2-[3-fluoro-6-(m-tolyl)pyrrolo[3,2-b]pyridin-1-yl]ethanone]",0.0316 µM
14,"O=C(Cn1cc(F)c2ncc(-c3cc(F)cc(F)c3)cc21)N1CCC1 [Example 474, 1-(Azetidin-1-yl)-2-[6-(3,5-difluorophenyl)-3-fluoro-pyrrolo[3,2-b]pyridin-1-yl]ethanone]",0.0316 µM
15,"O=C(Cn1cc(F)c2ncc(-c3cccc(C(F)(F)F)c3)cc21)N1CCC1 [Example 475, 1-(Azetidin-1-yl)-2-[3-fluoro-6-[3-(trifluoromethyl)phenyl]pyrrolo[3,2-b]pyridin-1-yl]ethanone]",0.0251 µM
16,"O=C(Cn1cc(F)c2ncc(-c3cccc(C(F)(F)F)c3F)cc21)N1CCC1 [Example 476, 1-(Azetidin-1-yl)-2-[3-fluoro-6-[2-fluoro-3-(trifluoromethyl)phenyl]pyrrolo[3,2-b]pyridin-1-yl]ethanone]",0.0501 µM
17,"O=C(Cn1cc(F)c2ncc(-c3ccc(F)c(F)c3F)cc21)N1CCC1 [Example 477, 1-(Azetidin-1-yl)-2-[3-fluoro-6-(2,3,4-trifluorophenyl)pyrrolo[3,2-b]pyridin-1-yl]ethanone]",0.0501 µM
18,"O=C(Cn1cc(F)c2ncc(-c3cccc(Cl)c3)cc21)N1CCC1 [Example 478, 1-(Azetidin-1-yl)-2-[6-(3-chlorophenyl)-3-fluoro-pyrrolo[3,2-b]pyridin-1-yl]ethanone]",0.0398 µM
19,"O=C(Cn1cc(F)c2ncc(-c3cccc(Cl)c3F)cc21)N1CCC1 [Example 479, 1-(Azetidin-1-yl)-2-[6-(3-chloro-2-fluoro-phenyl)-3-fluoro-pyrrolo[3,2-b]pyridin-1-yl]ethanone]",0.0251 µM

# Second part, the molecule after the results:
row,IC50,Structure (SMILES)
1,0.251 µM,"CN(C)C(=O)Cn1ccc2ncc(-c3ccccc3F)cc21 [Example 431, 2-[6-(2-Fluorophenyl)pyrrolo[3,2-b]pyridin-1-yl]-N,N-dimethyl-acetamide]"
2,0.794 µM,"Cc1cccc(-c2cnc3ccn(CC(=O)N(C)C)c3c2)c1F [Example 432, 2-[6-(2-Fluoro-3-methyl-phenyl)pyrrolo[3,2-b]pyridin-1-yl]-N,N-dimethyl-acetamide]"
3,0.0251 µM,"CN(C)C(=O)Cn1ccc2ncc(-c3ccccc3)cc21 [Example 433, N,N-Dimethyl-2-(6-phenylpyrrolo[3,2-b]pyridin-1-yl)acetamide]"
4,0.0794 µM,"CN(C)C(=O)Cn1ccc2ncc(-c3ccc(F)c(C(F)(F)F)c3)cc21 [Example 436, 2-[6-[4-Fluoro-3-(trifluoromethyl)phenyl]pyrrolo[3,2-b]pyridin-1-yl]-N,N-dimethyl-acetamide]"
5,0.316 µM,"CN(C)C(=O)Cn1ccc2ncc(-c3ccc(F)c(F)c3F)cc21 [Example 437, N,N-Dimethyl-2-[6-(2,3,4-trifluorophenyl)pyrrolo[3,2-b]pyridin-1-yl]acetamide]"
6,0.0501 µM,"CN(C)C(=O)Cn1ccc2ncc(-c3csc(Cl)c3)cc21 [Example 439, 2-[6-(5-Chloro-3-thienyl)pyrrolo[3,2-b]pyridin-1-yl]-N,N-dimethyl-acetamide]"
7,0.126 µM,"CN(C)C(=O)Cn1ccc2ncc(-c3cc(Cl)sc3Cl)cc21 [Example 440, 2-[6-(2,5-Dichloro-3-thienyl)pyrrolo[3,2-b]pyridin-1-yl]-N,N-dimethyl-acetamide]"
8,0.631 µM,"Cc1ccc(F)c(-c2cnc3ccn(CC(=O)N(C)C)c3c2)c1F [Example 444, 2-[6-(2,6-Difluoro-3-methyl-phenyl)pyrrolo[3,2-b]pyridin-1-yl]-N,N-dimethyl-acetamide]"
9,0.398 µM,"Cc1ccc(F)c(-c2cnc3ccn(CC(=O)N(C)C)c3c2)c1 [Example 445, 2-[6-(2-Fluoro-5-methyl-phenyl)pyrrolo[3,2-b]pyridin-1-yl]-N,N-dimethyl-acetamide]"
10,0.02 µM,"Cc1c(F)ccc(-c2cnc3ccn(CC(=O)N(C)C)c3c2)c1F [Example 447, 2-[6-(2,4-Difluoro-3-methyl-phenyl)pyrrolo[3,2-b]pyridin-1-yl]-N,N-dimethyl-acetamide]"
11,0.02 µM,"CN(C)C(=O)Cn1ccc2ncc(-c3cccc(Cl)c3F)cc21 [Example 448, 2-[6-(3-Chloro-2-fluoro-phenyl)pyrrolo[3,2-b]pyridin-1-yl]-N,N-dimethyl-acetamide]"
12,0.0631 µM,"CCc1cccc(-c2cnc3ccn(CC(=O)N(C)C)c3c2)c1 [Example 449, 2-[6-(3-Ethylphenyl)pyrrolo[3,2-b]pyridin-1-yl]-N,N-dimethyl-acetamide]"
13,0.0398 µM,"CN(C)C(=O)Cn1ccc2ncc(-c3cccc(F)c3)cc21 [Example 450, 2-[6-(3-Fluorophenyl)pyrrolo[3,2-b]pyridin-1-yl]-N,N-dimethyl-acetamide]"
14,0.0501 µM,"Cc1cccc(-c2cnc3ccn(CC(=O)N4CCC4)c3c2)c1F [Example 451, 1-(Azetidin-1-yl)-2-[6-(2-fluoro-3-methyl-phenyl)pyrrolo[3,2-b]pyridin-1-yl]ethanone]"
15,0.0251 µM,"O=C(Cn1ccc2ncc(-c3cccc(Cl)c3F)cc21)N1CCC1 [Example 453, 1-(Azetidin-1-yl)-2-[6-(3-chloro-2-fluoro-phenyl)pyrrolo[3,2-b]pyridin-1-yl]ethanone]"
16,0.0631 µM,"O=C(Cn1ccc2ncc(-c3ccc(F)c(Cl)c3)cc21)N1CCC1 [Example 456, 1-(Azetidin-1-yl)-2-[6-(3-chloro-4-fluoro-phenyl)pyrrolo[3,2-b]pyridin-1-yl]ethanone]"
17,0.0398 µM,"CCN(C)C(=O)Cn1ccc2ncc(-c3cccc(C)c3)cc21 [Example 459, N-Ethyl-N-methyl-2-[6-(m-tolyl)pyrrolo[3,2-b]pyridin-1-yl]acetamide]"
18,0.0316 µM,"CCN(C)C(=O)Cn1ccc2ncc(-c3ccc(F)c(F)c3)cc21 [Example 461, 2-[6-(3,4-Difluorophenyl)pyrrolo[3,2-b]pyridin-1-yl]-N-ethyl-N-methyl-acetamide]"
19,0.126 µM,"CCN(C)C(=O)Cn1ccc2ncc(-c3cc(F)c(F)c(F)c3)cc21 [Example 462, N-Ethyl-N-methyl-2-[6-(3,4,5-trifluorophenyl)pyrrolo[3,2-b]pyridin-1-yl]acetamide]"
20,0.0126 µM,"CCN(C)C(=O)Cn1ccc2ncc(-c3cccc(C(F)(F)F)c3F)cc21 [Example 464, N-Ethyl-2-[6-[2-fluoro-3-(trifluoromethyl)phenyl]pyrrolo[3,2-b]pyridin-1-yl]-N-methyl-acetamide]"
21,0.02 µM,"O=C(Cn1ccc2ncc(-c3cccc(Cl)c3F)cc21)N1CC(F)C1 [Example 466, 2-[6-(3-Chloro-2-fluoro-phenyl)pyrrolo[3,2-b]pyridin-1-yl]-1-(3-fluoroazetidin-1-yl)ethanone]"
22,0.0158 µM,"CCN(C)C(=O)Cn1ccc2ncc(-c3ccc(F)c(C)c3F)cc21 [Example 469, 2-[6-(2,4-Difluoro-3-methyl-phenyl)pyrrolo[3,2-b]pyridin-1-yl]-N-ethyl-N-methyl-acetamide]"
23,0.2 µM,"CCN(C)C(=O)Cn1ccc2ncc(-c3cccc(C(F)(F)F)c3)cc21 [Example 470, N-Ethyl-N-methyl-2-[6-[3-(trifluoromethyl)phenyl]pyrrolo[3,2-b]pyridin-1-yl]acetamide]"
